# Legend:
# CYP3A4 = target: T1, CYP3A4 (Homo sapiens, UniProt P08684); experiment: CYP inhibition assay in human liver microsome, CYP3A4; format: in vitro ADME; conditions: human, human liver microsomes, probe midazolam 5 μM, substrate midazolam 5 μM, third value of 2C9/2D6/3A4
# T1 construct: tissue BD-Gentest 452117; host or cells: human liver microsomes
# Protocol: (§1) This is a high throughput screening assay used for assessment of reversible inhibition of CYP2C9, CYP2D6, and CYP3A4 activity of test compounds in human liver microsome (HLM) in early discovery stage.
# (§2) 10 mM DMSO stock solutions of test compounds were diluted in DMSO to generate 2 mM intermediate stock solution. 250 nL, of intermediate stock solution were transferred in duplicate into 3 separate 384 well microtitre plates (assay-ready plates). A mixture of HLM and each substrate was made up. 45 μL of HLM substrate mix was then transferred to each well of an assay ready plate and mixed. The negative (solvent) and positive controls (standard inhibitor for each CYP) were included in each assay ready plate. The assay ready plate was warmed to 37° C. in an incubator over 10 minutes. 5 μL pre-warmed NADPH regenerating system was added to each incubation well to start the reaction. Final incubation volume was 50 μL. The assay plate then was placed back in the 37° C. incubator. After incubation (10 minutes for CYP2D6) for 5 minutes, incubates were quenched by addition of 50 μL 100% acetonitrile containing internal standards (400 ng/mL 13C6-4′-OH-Diclofenac, 20 ng/mL D3-Dextrorphan and 20 ng/mL D4-1′OH-Midazolam). The supernatants were collected for RapidFire/MS/MS analysis.
# (§3) RapidFire online solid phase extraction/sample injection system (Agilent) coupled with API4000 triple quadrupole mass spectrometer (AB Sciex) were used for sample analysis. The mobile phase composed of acetonitrile and water supplemented with 0.1% formic acid. A C4 solid phase extraction cartridge is used for sample separation. MS detection is achieved in positive ion MRM mode.
# (§4) Peak areas for substrate, metabolite and internal standard are determined using the RapidFire integrator software (version 3.6.12009.12296). Peak area ratios (PAR) of metabolite and internal standard (stable-labelled metabolite) are then calculated. The measurement window for each experiment is then defined:
# (§5) PAR (0% activity)=average PAR for all incubations containing concentrated inhibitor; Par (100% activity)=average PAR for all incubations containing no inhibitor (DMSO controls); % Activity (test inhibitor)=[PAR (test inhibitor)−PAR (0% activity)]/[PAR (100% activity)−PAR (0% activity)]; % Inhibition (test inhibitor)=100-% Activity (test inhibitor).
# CYP2C9 = target: T2, CYP2C9 (Homo sapiens, UniProt P11712); experiment: CYP inhibition assay in human liver microsome, CYP2C9; format: in vitro ADME; conditions: human, human liver microsomes, probe diclofenac 5 μM, substrate diclofenac 5 μM, first value of 2C9/2D6/3A4
# T2 construct: tissue BD-Gentest 452117; host or cells: human liver microsomes
# T2 sequence (P11712 whole entry): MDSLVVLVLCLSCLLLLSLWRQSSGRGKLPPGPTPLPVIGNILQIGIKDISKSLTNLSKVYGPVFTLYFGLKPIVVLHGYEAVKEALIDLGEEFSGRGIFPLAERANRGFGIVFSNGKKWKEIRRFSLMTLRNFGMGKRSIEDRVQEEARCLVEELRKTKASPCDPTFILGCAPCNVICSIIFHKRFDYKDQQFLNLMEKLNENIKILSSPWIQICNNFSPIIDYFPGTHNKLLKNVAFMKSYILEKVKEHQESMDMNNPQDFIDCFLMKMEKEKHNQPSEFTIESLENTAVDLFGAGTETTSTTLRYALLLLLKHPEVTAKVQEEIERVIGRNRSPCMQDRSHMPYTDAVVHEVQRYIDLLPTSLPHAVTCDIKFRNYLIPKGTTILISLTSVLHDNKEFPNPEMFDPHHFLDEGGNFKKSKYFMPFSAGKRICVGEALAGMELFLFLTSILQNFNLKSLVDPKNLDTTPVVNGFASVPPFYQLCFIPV
# Protocol: as §1, §2, §3, §4, §5
# human TLR7 = target: T3, human TLR7 (Homo sapiens, UniProt Q9NYK1); experiment: HEK293-Blue-hTLR-7 cells assay (SEAP reporter, R848 stimulation); format: cell-based; conditions: HEK293-Blue-hTLR7 cells, R848, 20 hrs; read-out: HEK/hTLR7 IC50
# T3 construct: host or cells: HEK293 (HEK-Blue hTLR7)
# T3 sequence (Q9NYK1 27-1049): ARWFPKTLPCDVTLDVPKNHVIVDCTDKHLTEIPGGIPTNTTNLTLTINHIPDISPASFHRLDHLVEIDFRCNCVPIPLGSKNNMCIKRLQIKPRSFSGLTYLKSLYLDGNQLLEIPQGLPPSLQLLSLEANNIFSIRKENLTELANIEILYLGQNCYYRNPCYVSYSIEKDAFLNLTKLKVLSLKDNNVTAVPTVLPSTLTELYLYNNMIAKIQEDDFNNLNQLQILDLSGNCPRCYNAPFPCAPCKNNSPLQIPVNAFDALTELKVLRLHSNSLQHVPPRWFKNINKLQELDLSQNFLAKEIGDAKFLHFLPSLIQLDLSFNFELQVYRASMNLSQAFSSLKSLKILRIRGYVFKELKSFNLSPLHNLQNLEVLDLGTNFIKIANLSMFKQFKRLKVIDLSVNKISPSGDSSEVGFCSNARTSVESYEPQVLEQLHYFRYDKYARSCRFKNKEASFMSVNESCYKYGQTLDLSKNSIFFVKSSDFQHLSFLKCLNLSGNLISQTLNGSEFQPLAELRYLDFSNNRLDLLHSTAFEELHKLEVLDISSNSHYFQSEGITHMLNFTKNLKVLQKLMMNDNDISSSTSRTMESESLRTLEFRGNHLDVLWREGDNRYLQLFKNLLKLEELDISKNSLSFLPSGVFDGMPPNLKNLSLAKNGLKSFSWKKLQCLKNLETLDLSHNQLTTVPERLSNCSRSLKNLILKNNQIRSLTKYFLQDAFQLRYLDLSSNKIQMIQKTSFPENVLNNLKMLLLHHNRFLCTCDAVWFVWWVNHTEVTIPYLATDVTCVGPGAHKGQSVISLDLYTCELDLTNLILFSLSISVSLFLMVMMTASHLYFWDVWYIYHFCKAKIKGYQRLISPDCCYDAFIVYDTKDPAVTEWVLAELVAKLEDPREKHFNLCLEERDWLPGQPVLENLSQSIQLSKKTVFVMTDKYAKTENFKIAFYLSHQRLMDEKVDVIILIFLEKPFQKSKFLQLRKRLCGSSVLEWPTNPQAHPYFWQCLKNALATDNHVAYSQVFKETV
# Procedure, shortened: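 HEK293-Blue-hTLR7 cells (NF-κB/AP-1-driven SEAP reporter) were stimulated with R848 alongside serially diluted compound at 1% final DMSO for 20 h at 37 °C. Supernatant SEAP was then developed with QUANTI-Blue for 2 h at 37 °C and absorbance read at 620–655 nm; antagonism is measured as reduced reporter signal.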
# T1 sequence (P08684 whole entry): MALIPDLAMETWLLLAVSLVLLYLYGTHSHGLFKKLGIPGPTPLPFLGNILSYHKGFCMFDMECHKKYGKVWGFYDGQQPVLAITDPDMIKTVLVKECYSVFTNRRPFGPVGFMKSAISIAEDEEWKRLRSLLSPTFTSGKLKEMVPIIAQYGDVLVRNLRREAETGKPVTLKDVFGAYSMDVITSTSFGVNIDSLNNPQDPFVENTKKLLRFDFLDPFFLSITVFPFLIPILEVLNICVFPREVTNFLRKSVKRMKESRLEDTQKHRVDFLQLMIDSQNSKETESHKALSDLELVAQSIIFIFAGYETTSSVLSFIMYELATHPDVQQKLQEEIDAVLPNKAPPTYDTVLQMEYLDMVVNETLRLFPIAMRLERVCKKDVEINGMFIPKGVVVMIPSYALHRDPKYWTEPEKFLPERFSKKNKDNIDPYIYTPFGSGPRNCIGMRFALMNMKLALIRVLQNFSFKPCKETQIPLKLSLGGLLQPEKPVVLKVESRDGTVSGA
"inhibition at 5 min, 10 µM (CYP3A4)","inhibition at 5 min, 10 µM (CYP2C9)",IC50 (human TLR7),Structure (SMILES)
35.5%,-3.5%,21 nM,"CO[C@@H]1CN(c2ccc(N3CCN(C[C@H]4CN(c5ccc(C#N)n6ncc(F)c56)C[C@@H](C)O4)CC3)cn2)C[C@H]1N [Example 166, 4-[(2S,6R)-2-[[4-[6-[(3R,4R)-3-amino-4-methoxy-pyrrolidin-1-yl]-3-pyridyl]piperazin-1-yl]methyl]-6-methyl-morpholin-4-yl]-3-fluoro-pyrazolo[1,5-a]pyridine-7-carbonitrile]"
0.5%,-4.5%,22 nM,"C[C@@H]1CN(c2ccc(C#N)n3nccc23)C[C@H](CN2CC(c3ccc(N4CC(C)(N)C4)cc3)C2)O1 [Example 163, 4-[(2S,6R)-2-[[3-[4-(3-amino-3-methyl-azetidin-1-yl)phenyl]azetidin-1-yl]methyl]-6-methyl-morpholin-4-yl]pyrazolo[1,5-a]pyridine-7-carbonitrile]"
47.5%,44.5%,25 nM,"[2H]c1ccc2c(N3C[C@H](CN4CCN(c5nc(C)cc(N6C[C@H](OC)[C@@H](N)C6)n5)CC4)O[C@H](C)C3)ccc(C#N)c2n1 [Example 134, 5-[(2S,6R)-2-[[4-[4-[(3S,4S)-3-amino-4-methoxy-pyrrolidin-1-yl]-6-methyl-pyrimidin-2-yl]piperazin-1-yl]methyl]-6-methyl-morpholin-4-yl]-2-deuterio-quinoline-8-carbonitrile]"
34.5%,19.5%,8 nM,"C[C@@H]1CN(c2ccc(C#N)c3nccnc23)C[C@H](CN2CCN(c3ccnc(N4C[C@H](N)[C@@H](F)C4)n3)CC2)O1 [Example 107, 8-[(2S,6R)-2-[[4-[2-[(3S,4S)-3-amino-4-fluoro-pyrrolidin-1-yl]pyrimidin-4-yl]piperazin-1-yl]methyl]-6-methyl-morpholin-4-yl]quinoxaline-5-carbonitrile]"
23.5%,-12.5%,16 nM,"C[C@@H]1CN(c2ccc(C#N)c3nccnc23)C[C@H](CN2CCN(c3nccc(N4C[C@@H](N)[C@H](F)C4)n3)CC2)O1 [Example 119, 8-[(2S,6R)-2-[[4-[4-[(3R,4R)-3-amino-4-fluoro-pyrrolidin-1-yl]pyrimidin-2-yl]piperazin-1-yl]methyl]-6-methyl-morpholin-4-yl]quinoxaline-5-carbonitrile]"
-5%,0.5%,4 nM,"Cc1cc(N2CCN(C[C@H]3CN(c4ccc(C#N)c5nccnc45)C[C@@H](C)O3)CC2)nc(N2CC(N)C2)n1 [Example 112, 8-[(2S,6R)-2-[[4-[2-(3-aminoazetidin-1-yl)-6-methyl-pyrimidin-4-yl]piperazin-1-yl]methyl]-6-methyl-morpholin-4-yl]quinoxaline-5-carbonitrile]"
16%,-2%,5 nM,"[2H]c1nc2c(C#N)ccc(N3C[C@H](CN4CCN(c5nc(C)cc(N6CC(N)C6)n5)CC4)O[C@H](C)C3)c2nc1[2H] [Example 124, 8-[(2S,6R)-2-[[4-[4-(3-aminoazetidin-1-yl)-6-methyl-pyrimidin-2-yl]piperazin-1-yl]methyl]-6-methyl-morpholin-4-yl]-2,3-dideuterio-quinoxaline-5-carbonitrile]"
10.5%,2.5%,32 nM,"C[C@@H]1CN(c2ccc(C#N)n3ncc(F)c23)C[C@H](CN2CCN(c3ccc(N4CC(C)(N)C4)nc3)CC2)O1 [Example 154, 4-[(2S,6R)-2-[[4-[6-(3-amino-3-methyl-azetidin-1-yl)-3-pyridyl]piperazin-1-yl]methyl]-6-methyl-morpholin-4-yl]-3-fluoro-pyrazolo[1,5-a]pyridine-7-carbonitrile]"
42.5%,-2.5%,11 nM,"[2H]c1ccc2c(N3C[C@H](CN4CCN(c5ccc(N[C@H]6CNC[C@H]6F)nc5)CC4)O[C@H](C)C3)ccc(C#N)c2n1 [Example 162, 2-deuterio-5-[(2S,6R)-2-[[4-[6-[[(3S,4R)-4-fluoropyrrolidin-3-yl]amino]-3-pyridyl]piperazin-1-yl]methyl]-6-methyl-morpholin-4-yl]quinoline-8-carbonitrile]"
10%,8.5%,13 nM,"Cc1ccc(N2C[C@H](CN3CCN(c4ccnc(N5CCNCC5)n4)CC3)O[C@H](C)C2)c2nccnc12 [Example 117, (2R,6S)-2-methyl-4-(8-methylquinoxalin-5-yl)-6-[[4-(2-piperazin-1-ylpyrimidin-4-yl)piperazin-1-yl]methyl]morpholine]"
18%,-9.5%,21 nM,"[2H]c1ccc2c(N3C[C@H](CN4CCN(c5ccc(N6C[C@@H](N)[C@H](OC)C6)nc5)CC4)O[C@H](C)C3)ccc(C#N)c2n1 [Example 143, 5-[(2S,6R)-2-[[4-[6-[(3R,4R)-3-amino-4-methoxy-pyrrolidin-1-yl]-3-pyridyl]piperazin-1-yl]methyl]-6-methyl-morpholin-4-yl]-2-deuterio-quinoline-8-carbonitrile]"
35%,-1%,15 nM,"[2H]c1ccc2c(N3C[C@H](CN4CCN(c5ccc(N6CC7(CNCCO7)C6)nc5)CC4)O[C@H](C)C3)ccc(C#N)c2n1 [Example 152, 2-deuterio-5-[(2R,6S)-2-methyl-6-[[4-[6-(5-oxa-2,8-diazaspiro[3.5]nonan-2-yl)-3-pyridyl]piperazin-1-yl]methyl]morpholin-4-yl]quinoline-8-carbonitrile]"
